In PubChem BioAssay AID1508591 one finds half-life data, which are given here for 63 compounds.

The conditions of the data set: rat; liver microsomes; pH 7.4; 15.0 min; 1.0 µM. In general terms: Liver microsomes are vesicles of endoplasmic reticulum, rich in cytochrome P450 enzymes.

The term half-life denotes the time in which the quantity being followed falls by half. The low end stands for rapid decline, the high end for slow decline. `CCc1ccc(NC(=O)[C@H](Cc2c[nH]c3ccccc23)NC(=O)[C@@H]2Cc3ccccc3CN2)cc1`: the half-life worked out at 2.32 min.

Turning to `O=C1CCCC2=C1C(c1[nH]ncc1Cl)N=C(Nc1nc3cc([S+](=O)([O-])N4CCOCC4)ccc3o1)N2` (stereo not drawn), the half-life came to 9.4 min.

On to `COC(=O)C1=C(C)NC(C)=C(C(=O)OCCCN2CCC(c3ccccc3)(c3ccccc3)CC2)C1c1cccc([N+](=O)[O-])c1` (stereo not drawn), for which the half-life amounted to 5.13 min.

`Cc1sc2ncnc(Sc3nnnn3-c3ccccc3)c2c1-c1ccccc1` yielded a half-life of 1.5 min.

Compound `COc1ccc(OC)c(N2C(=O)C(Cl)=C(N3CCCCC3)C2=O)c1` displayed a half-life of 1.5 min.

Turning to `CC(C)(Nc1nc(-c2ccccc2C(F)(F)F)nc2ccccc12)c1ccc(-c2cccc(C(F)(F)F)c2)cc1`, the half-life was over 30 min.

In turn, `O=C(Nc1ccccc1C(=O)Nc1ccccc1C(=O)NCc1ccco1)c1ccco1` gave a half-life of 11 min.

`O=C(Nc1ncc(Cc2ccccc2)s1)c1ccc(-c2cccc([N+](=O)[O-])c2)o1`: the half-life is over 30 min.

Consider `Cc1nn(-c2ccccc2)c2nc(C3CC3)cc(C(=O)Nc3ccc(F)cc3)c12`, for which the half-life was over 30 min.

For `NC(=O)C1CCN(c2nc(-c3ccc4c(c3)OCCO4)cs2)CC1`, the half-life is 3.09 min.

`COc1ccc(NC(=O)c2[nH]c(C)c(C(C)=O)c2C)cc1S(=O)(=O)N1CCCCCC1` registered a half-life of 3 min.

Take `CCCCCOc1ccccc1/C(=C\SC)n1ccnc1`: the half-life came to 6.67 min.

Take `CCOc1ccc(/C=C/c2nc3ccccc3n2S(=O)(=O)c2ccc(Br)cc2)cc1`: the half-life is over 30 min.

`CNc1nc(-c2ccc3c(N)n[nH]c3c2)cc(N2C[C@@H](C(=O)NC3CCCCC3)CC[C@@H]2C)n1` displayed a half-life of 1.85 min.

`c1ccc(C2=Nn3c(nnc3-c3ccncc3)SC2)cc1` registered a half-life of 9.1 min.

`CC(C)c1cc(C(C)C)c(CC(=O)NS(=O)(=O)Oc2c(C(C)C)cccc2C(C)C)c(C(C)C)c1` displayed a half-life of 28.2 min.

Regarding `COc1ccccc1-c1[nH]nc2ncc(-c3ccc(C)cc3)nc12`, the half-life came out at 3 min.

`COC(=O)c1ccc([C@H]2c3[nH]c4ccccc4c3C[C@H](C(=O)OC)N2C(=O)CCl)cc1` returned a half-life of 4.02 min.

`O=C(C1CC(=O)N(c2n[nH]c3ccccc23)C1)N1CCC(c2noc3cc(F)ccc23)CC1` (stereo not drawn) had a half-life of 19.1 min.

`N#Cc1nc(-c2cccc3ccccc23)oc1NC1COC1`: the half-life was 28 min.

Take `O=C1C(SCCO)=C(SCCO)C(=O)c2ccccc21`: the half-life is over 30 min.

`Fc1cc(Nc2nc(-c3ccncc3)nc3ccccc23)ccc1-c1cccc(OC(F)(F)F)c1`: the half-life was over 30 min.

As for `Cc1cc2c(-c3cccc(O)c3)nc(-c3c(C)noc3C)cc2[nH]1`, the half-life was 24.2 min.

For `Cc1onc(-c2ccccc2)c1C(=O)Nc1nnc(COc2ccc(Cl)cc2)s1`, the half-life is over 30 min.

Take `CC(C)(C)c1ccc(OCc2nn3c(-c4ccncc4)nnc3s2)cc1`: the half-life worked out at 19.6 min.

Compound `CCOc1ccc(CCNC(=O)c2cc3sccc3n2Cc2ccncc2)cc1OCC` registered a half-life of 1.6 min.

The compound `Cc1ccc(SC2=NS(=O)(=O)c3ccccc32)c(C)c1` gave a half-life of 1.54 min.

The compound `N#CC1(c2ccc(NC(=O)c3cccnc3NCc3ccncc3)cc2)CCCC1` gave a half-life of 9.14 min.

As for `COc1ccc(Nc2nc(-c3cccc(OC)c3)no2)cc1`, the half-life is 20.3 min.

In turn, `O=C(c1ccc2ccccc2c1)N1CCN(c2ccc(O)cc2)CC1` yielded a half-life of over 30 min.

With `NC(=O)C1CCN(c2ncc(Br)cn2)CC1`, the half-life is over 30 min.

In turn, `O=c1[nH]c(C2CCN(CC3CCCCC3)CC2)nn1Cc1ccccc1` had a half-life of 25.3 min.

Compound `N#Cc1ccc(NS(=O)(=O)c2ccc(NC(=O)Cc3ccc(F)c(Cl)c3)cc2)cc1` showed a half-life of over 30 min.

Compound `CC[C@@H](C)Nc1cc(C(=O)NC2CC3CCC(C2)N3c2ccc(C(=O)C3CC3)cn2)c(C)cc1C(N)=O` (stereo partly drawn) yielded a half-life of 23.4 min.

In turn, `Cc1ccc(OCCn2c(CCNC(=O)C3CCCCC3)nc3ccccc32)cc1` registered a half-life of 1.6 min.

In the case of `Cc1cccc(-n2cnc3cc(C(=O)N4CCCC(C(C)C)C4)ccc32)c1` (stereo not drawn), the half-life is 1.8 min.

As for `Nc1ccc(-c2cccc3c(=O)cc(N4CCOCC4)oc23)cc1`, the half-life was over 30 min.

Regarding `COC(=O)[C@H](Cc1ccc(O[S+](=O)([O-])c2cccc3cnccc23)cc1)N[S+](=O)([O-])c1ccc2cnccc2c1`, the half-life came to 1 min.

`COc1ncc(-c2ccc3c(Nc4cc(Oc5cc(F)cc(F)c5)cc(C(=O)O)c4)c(S(=O)(=O)NC4CC4)cnc3c2)c(OC)n1` yielded a half-life of 9.87 min.

As for `O=C(Cn1c2ncccc2c(=O)n1-c1ccccc1)Nc1ccc(Cl)cc1C(F)(F)F`, the half-life was found to be 4.81 min.

`Cc1ccc(-c2nnc(N3CCC(C(N)=O)CC3)s2)cc1` had a half-life of 6.38 min.

Take `CCOc1cc(=O)n2c(c1C(=O)Nc1cc(OC)c(Cl)cc1OC)CCCC2`: the half-life was over 30 min.

`CCOc1ccc(N2CC(c3nc(-c4cc(OC)c(OC)c(OC)c4)no3)CC2=O)cc1` (stereo not drawn) had a half-life of 7.3 min.

`Cc1nn2c(c1-c1ccccc1OCc1ccccc1)N(C(=O)Cc1ccc3c(c1)OCO3)CCC2` displayed a half-life of 1.41 min.

For the compound `CNc1nc2c(s1)C(c1ccc(Cl)cc1)CC(=O)N2` (stereo not drawn), the half-life is 2.07 min.

`Cc1ccc(S(=O)(=O)Nc2cc(F)ccc2C(=O)Nc2nc(-c3ccccc3)cs2)cc1` registered a half-life of 5.6 min.

`C=C1c2cccc(O)c2C(O)=C2C(=O)[C@]3(O)C(O)=C(C(N)=O)C(=O)[C@@H](N(C)C)[C@@H]3[C@@H](O)[C@H]12` gave a half-life of over 30 min.

Compound `Nc1nc2c(s1)C(c1ccc(F)cc1F)CC(=O)N2` (stereo not drawn) returned a half-life of over 30 min.

Compound `COC(=O)Nc1nc2ccc(C(=O)c3ccccc3)cc2[nH]1` came in with a half-life of over 30 min.

In the case of `COc1cccc(CNC(=O)CCCn2nc(C)c3c(C)n(-c4ccc(C)cc4)nc3c2=O)c1OC`, the half-life amounted to 1.07 min.

In the case of `CCn1ncc(NC(=O)Cn2ncc3cc(-c4cccc(OC)c4)ccc32)n1`, the half-life was determined as 20.4 min.

The compound `CN(C(=O)c1cn2c(-c3ccc(C(F)(F)F)cc3)cnc2cn1)c1ccc(C#N)cc1` displayed a half-life of over 30 min.

Consider `COc1cc(Nc2nc(-c3ccncc3)nc3ccccc23)ccc1N1CCN(C)CC1`, for which the half-life came out at 11 min.

As to `O=C(Nc1nc(-c2ccccc2)cs1)c1ccncc1NS(=O)(=O)c1ccccc1`, the half-life came to 13 min.

In turn, `O=C(NCc1ccncc1)c1nc(-c2cccnc2)c2cnccn12` displayed a half-life of over 30 min.

Compound `CN(C)c1ccc2cc(C(=O)N[C@@H](CCCN=C(N)CCl)C(=O)NCc3ccccc3)ccc2c1` displayed a half-life of 5.3 min.

`COc1ccccc1S(=O)(=O)Nc1cnccc1C(=O)Nc1nc(-c2ccccc2)cs1` came in with a half-life of 16 min.

`Cc1nnc(N2C(=O)c3oc4ccccc4c(=O)c3C2c2ccc(F)cc2)s1` (stereo not drawn) had a half-life of over 30 min.

For `O=C(CSc1nc(-c2ccc(F)cc2)[nH]c1-c1ccc(F)cc1)Nc1ccc2c(c1)OCCO2`, the half-life was determined as 1.19 min.

In turn, `COC(=O)CNC(=O)c1nc(-c2ccc([S+](C)(=O)[O-])cc2)c2ccccn12` displayed a half-life of over 30 min.

Regarding `CNC(=O)Cn1cc(-c2ccc3c(c2)C(F)CC32NC(=O)N(CC(=O)N(Cc3ccc(F)cc3)[C@@H](C)C(F)(F)F)C2=O)cn1` (stereo partly drawn), the half-life was 18.9 min.

Take `CNc1nc(-c2cccc3ccccc23)ccc1C#N`: the half-life was 5.7 min.

Regarding `COc1ccc(-c2nc(NC(C)c3ccccc3)c3ccccc3n2)cc1` (stereo not drawn), the half-life stood at 20.3 min.
